The first experiment deals with T1, MEK1 (Homo sapiens, UniProt Q02750).
T1 construct: purchased Millipore 14-420 (GST-MEK1); 14-703 (Cot1); host or cells: Cot1: insect cells (SF21)
T1 sequence (Q02750 whole entry): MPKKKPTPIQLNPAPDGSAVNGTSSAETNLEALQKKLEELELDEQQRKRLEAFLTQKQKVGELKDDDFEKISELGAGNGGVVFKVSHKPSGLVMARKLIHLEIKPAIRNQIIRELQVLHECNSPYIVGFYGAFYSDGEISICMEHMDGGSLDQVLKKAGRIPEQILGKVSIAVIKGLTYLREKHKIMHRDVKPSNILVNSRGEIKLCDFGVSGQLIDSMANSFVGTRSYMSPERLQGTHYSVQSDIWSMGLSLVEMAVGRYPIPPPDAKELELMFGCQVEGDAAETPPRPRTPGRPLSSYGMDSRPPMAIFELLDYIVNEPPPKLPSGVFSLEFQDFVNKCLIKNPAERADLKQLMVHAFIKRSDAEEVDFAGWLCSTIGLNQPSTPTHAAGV
The experiment in a line: MEK1 activation kinase assay (Assay 2, HTRF; Cot1 phosphorylates GST-MEK1). The experiment is classed as biochemical. The conditions noted are these: IC50 in MEK1 activation kinase assay, representative example compounds. As to the method:
MEK1 Activation Kinase Assay
The kinase Cot1 activates MEK1 by phosphorylating its activation loop. The inhibitory activity of compounds of the present invention on this activation of MEK1 was quantified employing the HTRF assay described in the following paragraphs.
As substrate for the kinase reaction the unactive C-terminally His6-tagged GST-MEK1 fusion protein (Millipore cat. no 14-420) was used.
Then the kinase reaction was started by the addition of 2 μl of a solution of Cot1 in assay buffer and the resulting mixture was incubated for a reaction time of 20 min at 22° C. The concentration of Cot1 in the assay was adjusted depending of the activity of the enzyme lot and was chosen appropriate to have the assay in the linear range, typical enzyme concentrations were in the range of about 2 ng/μl (final conc. in the 5 μl assay volume).
The resulting mixture was incubated 2 h at 22° C. to allow the binding of the phosphorylated GST-MEK1 to the anti-GST-XL665 and the Eu-cryptate labelled anti-phospho-MEK 1/2 antibody. Subsequently the amount of Ser217/Ser221-phosphorylated substrate was evaluated by measurement of the resonance energy transfer from the Eu-Cryptate-labelled anti-phospho-MEK antibody to the anti-GST-XL665.
In general terms: In TR-FRET formats the signal depends on donor and acceptor labels being close together.
One may read the IC50 as the concentration at which inhibition is half-maximal. As to `CNS(=O)(=O)Nc1cccc(Oc2cc(F)cc(Nc3ccc(I)cc3F)c2C(N)=O)c1` [Example 5.41, 2-[3-[[(methylamino)sulfonyl]amino]phenoxy]-4-fluoro-6-[(2-fluoro-4-iodophenyl)amino]-benzamide], the IC50 was less than 1000 nM.

The experiment is the same for the next values; noted with them: mean values from 2 or more measurements; read-out: Assay 2 IC50 values (nanomolar) (MEK1 activation kinase assay) (values are mean values from 2 or more measurements).
`CCS(=O)(=O)N1CCC[C@H]1COc1cc(F)cc(Nc2ccc(I)cc2F)c1C(N)=O` [Example 5.34, 2-((S)-1-Ethanesulfonyl-pyrrolidin-2-ylmethoxy)-4-fluoro-6-(2-fluoro-4-iodo-phenylamino)-benzamide]: the concentration for half-maximal inhibition (IC50) was determined as 96.5 nM.
The same measure, in the same setting: to `NC(=O)c1c(Nc2ccc(I)cc2F)cc(F)cc1Oc1cccc(NS(=O)(=O)C2CC2)c1` [Example 5.36, 2-(3- Cyclopropanesulfonylamino-phenoxy)-4-fluoro-6-(2-fluoro-4-iodo-phenylamino)-benzamide] belongs 14.5 nM; to `NC(=O)c1c(Nc2ccc(I)cc2F)cc(F)cc1Oc1cccc(NS(=O)(=O)C2CCCC2)c1` [Example 5.37, 2-(3- Cyclopentanesulfonylamino-phenoxy)-4-fluoro-6-(2-fluoro-4-iodo-phenylamino)-benzamide], 20.4 nM.
Turning to `CCN(CC)S(=O)(=O)Nc1cccc(Oc2cc(F)cc(Nc3ccc(I)cc3F)c2C(N)=O)c1` [Example 5.38, 2-(3-diethylsulfamoyl-amino-phenoxy)-4-fluoro-6-(2-fluoro-4-iodo-phenylamino)-benzamide], the half-maximal inhibitory concentration (IC50) came to 55.3 nM.
`CC(=O)N1CCC[C@@H]1COc1cc(F)cc(Nc2ccc(I)cc2F)c1C(N)=O` [Example 5.39, 2-((R)-1-Acetyl-pyrrolidin-2-ylmethoxy)-4-fluoro-6-(2-fluoro-4-iodo-phenylamino)-benzamide]: the IC50 was 438 nM.
Consider `CNS(=O)(=O)Nc1cccc(Oc2cc(F)cc(Nc3ccc(I)cc3F)c2C(N)=O)c1` [Example 5.41, 2-[3-[[(methylamino)sulfonyl]amino]phenoxy]-4-fluoro-6-[(2-fluoro-4-iodophenyl)amino]-benzamide], for which the IC50 worked out at 22.2 nM.
With `NC(=O)c1c(Nc2ccc(I)cc2F)cc(F)cc1Oc1cccc(NS(=O)(=O)C2CCC2)c1` [Example 5.48, 2-(3-Cyclobutanesulfonyl-amino-phenoxy)-4-fluoro-6-(2-fluoro-4-iodo-phenylamino)-benzamide], the IC50 was determined as 16.9 nM.
Still for that read-out and setting: next, `NC(=O)c1c(Nc2ccc(I)cc2F)cc(F)cc1Oc1cccc(NS(=O)(=O)c2c[nH]cn2)c1` [Example 5.49, 4-Fluoro-2-(2-fluoro-4-iodo-phenylamino)-6-[3-(1H-imidazole-4-sulfonylamino)-phenoxy]-benzamide]: 15.7 nM; `CN(C)S(=O)(=O)NCc1cccc(Oc2cc(F)cc(Nc3ccc(I)cc3F)c2C(N)=O)c1` [Example 5.67, 6-[3-(dimethyl-aminosulfonylamino-methyl)-phenoxy]-4-fluoro-2-(2-fluoro-4-iodo-phenylamino)-6-benzamide]: 63.4 nM; `CS(=O)(=O)NCc1cccc(Oc2cc(F)cc(Nc3ccc(I)cc3F)c2C(N)=O)c1` [Example 5.68, 4-Fluoro-2-(2-fluoro-4-iodo-phenylamino)-6-[3-(methane-sulfonylamino-methyl)-phenoxy]-benzamide]: 43.2 nM.
In the case of `CC(=O)NCc1cccc(Oc2cc(F)cc(Nc3ccc(I)cc3F)c2C(N)=O)c1` [Example 5.69, 2-[3-(Acetylamino-methyl)-phenoxy]-4-fluoro-6-(2-fluoro-4-iodo-phenylamino)-benzamide], the IC50 worked out at 18.3 nM.
`NC(=O)c1c(Nc2ccc(I)cc2F)cc(F)cc1Oc1cccc(NC(=O)c2ccsc2)c1` [Example 5.75, Thiophene-3-carboxylic acid {3-[2-carbamoyl-5-fluoro-3-(2-fluoro-4-iodo-phenylamino)-phenoxy]-phenyl}-amide]: the IC50 was 103 nM.
`NC(=O)c1c(Nc2ccc(I)cc2F)cc(F)cc1Oc1cccc(NC(=O)c2csnn2)c1` [Example 5.76, [1,2,3]Thiadiazole-4-carboxylic acid {3-[2-carbamoyl-5-fluoro-3-(2-fluoro-4-iodo-phenylamino)-phenoxy]-phenyl}-amide]: the IC50 is 70.3 nM.
Same read-out and setting: next, `NC(=O)c1c(Nc2ccc(I)cc2F)cc(F)cc1Oc1cccc(NC(=O)c2ccoc2)c1` [Example 5.77, Furan-3-carboxylic acid {3-[2-carbamoyl-5-fluoro-3-(2-fluoro-4-iodo-phenylamino)-phenoxy]-phenyl}-amide]: 127 nM; `NC(=O)c1c(Nc2ccc(I)cc2F)cc(F)cc1Oc1cccc(NC(=O)c2ccno2)c1` [Example 5.78, Isoxazole-5-carboxylic acid {3-[2-carbamoyl-5-fluoro-3-(2-fluoro-4-iodo-phenylamino)-phenoxy]-phenyl}-amide]: 86.2 nM.
`NC(=O)c1c(Nc2ccc(I)cc2F)cc(F)cc1Oc1cccc(NC(=O)c2cn[nH]c2)c1` [Example 5.79, 1H-Pyrazole-4-carboxylic acid {3-[2-carbamoyl-5-fluoro-3-(2-fluoro-4-iodo-phenylamino)-phenoxy]-phenyl}-amide]: the IC50 came to 77.8 nM.
Turning to `NC(=O)c1c(Nc2ccc(I)cc2F)cc(F)cc1Oc1cccc(NC(=O)C2CCC2)c1` [Example 5.80, 2-[3-(Cyclo-butanecarbonyl-amino)-phenoxy]-4-fluoro-6-(2-fluoro-4-iodo-phenylamino)-benzamide], the 50% inhibitory concentration (IC50) was 137 nM.
For `NC(=O)c1c(Nc2ccc(I)cc2F)cc(F)cc1Oc1cccc(NC(=O)c2cc[nH]n2)c1` [Example 5.81, 1H-Pyrazole-3-carboxylic acid {3-[2-carbamoyl-5-fluoro-3-(2-fluoro-4-iodo-phenylamino)-phenoxy]-phenyl}-amide], the IC50 was determined as 96.4 nM.
Regarding `Cn1cncc1C(=O)Nc1cccc(Oc2cc(F)cc(Nc3ccc(I)cc3F)c2C(N)=O)c1` [Example 5.82, 3-Methyl-3H-imidazole-4-carboxylic acid {3-[2-carbamoyl-5-fluoro-3-(2-fluoro-4-iodo-phenylamino)-phenoxy]-phenyl}-amide], the IC50 was 49.9 nM.
Turning to `Cc1nocc1C(=O)Nc1cccc(Oc2cc(F)cc(Nc3ccc(I)cc3F)c2C(N)=O)c1` [Example 5.83, 3-Methyl-isoxazole-4-carboxylic acid {3-[2-carbamoyl-5-fluoro-3-(2-fluoro-4-iodo-phenylamino)-phenoxy]-phenyl}-amide], the concentration for half-maximal inhibition (IC50) was determined as 143 nM.
With `NC(=O)c1c(Nc2ccc(I)cc2F)cc(F)cc1Oc1cccc(NC(=O)c2ccon2)c1` [Example 5.84, Isoxazole-3-carboxylic acid {3-[2-carbamoyl-5-fluoro-3-(2-fluoro-4-iodo-phenylamino)-phenoxy]-phenyl}-amide], the IC50 turned out to be 75.4 nM.
On the same count and under the same terms, next, `NC(=O)c1c(Nc2ccc(I)cc2F)cc(F)cc1Oc1cncc(NS(=O)(=O)c2c[nH]cn2)c1` [Example 5.93, 4-Fluoro-2-(2-fluoro-4-iodo-phenylamino)-6-[5-(1H-imidazole-4-sulfonylamino)-pyridin-3-yloxy]-benzamide]: 86 nM.
Take `NC(=O)c1c(Nc2ccc(I)cc2F)cc(F)cc1Oc1cccc(NS(=O)(=O)NCC(F)(F)F)c1` [Example 5.94, 4-fluoro-2-[(2-fluoro-4-iodophenyl)amino]-6-(3-{[(2,2,2-trifluoroethyl)-sulfamoyl]amino}phenoxy)benzamide]: the IC50 is 55.5 nM.
On the same count and under the same terms, to `COCCS(=O)(=O)Nc1cccc(Oc2cc(F)cc(Nc3ccc(I)cc3F)c2C(N)=O)c1` [Example 5.95, 4-fluoro-2-[(2-fluoro-4-iodophenyl)amino]-6-(3-{[(2-methoxyethyl)sulfonyl]amino}phenoxy)benzamide] belongs 25.1 nM; to `CC(C)(O)C(O)CCOc1cc(F)cc(Nc2ccc(I)cc2F)c1C(N)=O` (stereo not shown) [Example 6.1, 2-(3,4-Dihydroxy-4-methyl-pentyloxy)-4-fluoro-6-(2-fluoro-4-iodo-phenylamino)-benzamide], 19.7 nM.
Turning to `CC(O)(CO)CCOc1cc(F)cc(Nc2ccc(I)cc2F)c1C(N)=O` (stereo not shown) [Example 6.2, 2-(3,4-Dihydroxy-3-methyl-butoxy)-4-fluoro-6-(2-fluoro-4-iodo-phenylamino)-benzamide], the IC50 was 69.3 nM.
Take `C#Cc1ccc(Nc2cc(F)cc(Oc3cccc(NS(=O)(=O)N(C)C)c3)c2C(N)=O)c(F)c1` [Example 7.2, 2-[3-[[(dimethylamino)sulfonyl]amino]phenoxy]-4-fluoro-6-[(4-ethynyl-2-fluorophenyl)amino]-benzamide]: the IC50 is 13.5 nM.
With `C#Cc1ccc(Nc2cc(F)cc(Oc3cccc(NS(=O)(=O)NCCC)c3)c2C(N)=O)c(F)c1` [Example 7.3, 2-[3-[[(propylamino)sulfonyl]amino]phenoxy]-4-fluoro-6-[(4-ethynyl-2-fluorophenyl)amino]-benzamide], the IC50 was determined as 46.7 nM.
With `C#Cc1ccc(Nc2c(F)c(F)c(F)c(Oc3cccc(NS(=O)(=O)N(C)C)c3)c2C(N)=O)c(F)c1` [Example 7.4, 2-{3-[(dimethylsulfamoyl)amino]phenoxy}-6-[(4-ethynyl-2-fluorophenyl)amino]-3,4,5-trifluorobenzamide], the IC50 worked out at 12.3 nM.
Turning to `CN(C)S(=O)(=O)N(C)c1cccc(Oc2cc(F)cc(Nc3ccc(I)cc3F)c2C(N)=O)c1` [Example 10.6, 6-[3-[[(dimethylamino)sulfonyl](methyl)-amino]phenoxy]-4-fluoro-2-[(2-fluoro-4-iodophenyl)amino]-benzamide], the IC50 is 49.1 nM.

The same experiment, now with this note: representative example compounds; read-out: IC50 in MEK1 activation kinase assay.
Regarding `NC(=O)c1c(Nc2ccc(I)cc2F)cc(F)cc1Oc1cccc(NS(=O)(=O)C2CCC2)c1` [Example 5.48, 2-(3-Cyclobutanesulfonyl-amino-phenoxy)-4-fluoro-6-(2-fluoro-4-iodo-phenylamino)-benzamide], the IC50 was less than 1000 nM.
Consider `NC(=O)c1c(Nc2ccc(I)cc2F)cc(F)cc1Oc1cccc(NS(=O)(=O)c2c[nH]cn2)c1` [Example 5.49, 4-Fluoro-2-(2-fluoro-4-iodo-phenylamino)-6-[3-(1H-imidazole-4-sulfonylamino)-phenoxy]-benzamide], for which the IC50 was less than 1000 nM.
Take `CN(C)S(=O)(=O)N(C)c1cccc(Oc2cc(F)cc(Nc3ccc(I)cc3F)c2C(N)=O)c1` [Example 10.6, 6-[3-[[(dimethylamino)sulfonyl](methyl)-amino]phenoxy]-4-fluoro-2-[(2-fluoro-4-iodophenyl)amino]-benzamide]: the IC50 was less than 1000 nM.
